Experimental data as given in patent publication US8377706B2, “Olfactory receptor-functionalized transistors for highly selective bioelectronic nose and biosensor using the same” (Seoul National University Industry Foundation, priority 2008, dated 2013).

Key:
[1] = Control: conductance measurement on bare carbon nanotube transistors; conditions: bare CNT
Description: (§1) To measure the effects of odorants on the biosensor using human olfactory receptor functionalized transistors, drops of 9 μl phosphate buffered saline (PBS) were placed onto the human olfactory receptor functionalized transistors manufactured in […]. Subsequently, the source-drain current was monitored after the introduction of a solution containing specific odorants. A bias voltage of 100 mV was maintained at all time during the electrical measurement (See FIG. 8).
(§2) The results are shown in FIGS. 12 and 13, respectively. As shown respectively in FIGS. 12 and 13, each of the conductance modulations was observed on the biosensors using modified carbon nanotube transistors with lipid membranes in which hOR2AG1 was not included and bare carbon nanotube transistors, after the introduction of amyl butyrate at 100 mM.

[2] = target: T1, human olfactory receptor 2AG1 (hOR2AG1) protein (Homo sapiens, UniProt Q9H205); assay: Conductance (source-drain current) measurement of biosensor using hOR2AG1-functionalized swCNT transistors after introduction of odorants; assay type: biochemical; conditions: for Detection Limit: lipid membranes with hOR2AG1 on swCNT-FET, odorant solution in PBS, bias 100 mV
T1 construct: made in house; host or cells: Escherichia coli
T1 sequence (Q9H205 1-316): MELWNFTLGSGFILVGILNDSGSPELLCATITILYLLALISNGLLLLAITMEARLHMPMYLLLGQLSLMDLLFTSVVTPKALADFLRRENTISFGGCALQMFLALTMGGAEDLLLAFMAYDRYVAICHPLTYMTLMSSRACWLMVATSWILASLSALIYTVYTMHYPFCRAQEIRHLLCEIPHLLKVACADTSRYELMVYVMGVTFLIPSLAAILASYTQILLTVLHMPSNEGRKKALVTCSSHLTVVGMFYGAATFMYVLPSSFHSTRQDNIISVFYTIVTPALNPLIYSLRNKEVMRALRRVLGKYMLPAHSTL
Description: 1 μl of the hOR2AG1-containing fraction collected in Example 1 was evenly spread to cover the swCNTs and electrodes, and vacuum-dried for 4 hours to fix the hOR2AG1, thereby manufacturing human olfactory receptor-functionalized carbon nanotube transistors.
as §1
A 1 M stock solution of the odorants was prepared, and additional dilutions (from 10^−1 M to 10^−13 M) were obtained by serial 1:10 dilutions in PBS.
Butyl butyrate, phenyl valerate, and propyl butyrate were introduced at various concentrations on the biosensors using hOR2AG1 functionalized transistors manufactured in Example 2 of the present invention, each of the conductance modulations was measured, and the results were recorded in FIGS. 14 to 16, respectively. The arrows illustrated in FIGS. 14 to 16 show time points of introduction of each odorant.

[3] = target: T2, hOR2AG1 (Homo sapiens, UniProt Q9H205); conditions: known; cited from earlier work
T2 sequence (Q9H205 1-316): T1 sequence (Q9H205 1-316)

[4] = Control: conductance measurement on carbon nanotube transistors with lipid membranes in which hOR2AG1 was not included; conditions: lipid membranes without olfactory receptors
Description: as §1, §2

Source-drain current after introduction of odorant ([2]; 100 fM, 1 pM, 10 pM and 100 pM (FIG. 10))	Detection Limit [2]	Effect on biosensor conductance ([2]; odorant at 1 pM (FIG. 11))	Effect on biosensor conductance ([2]; odorant at 100 μM (FIG. 11))	SMILES	Detection Limit [1]	Activation of hOR2AG1 [3]	Detection Limit [4]
sharply decreased	1e-10 mM	sharply decreased	–	CCCCCOC(=O)CCC [Amyl butyrate (AB), amyl butyrate]	100 mM	activated	100 mM
–	10 mM	–	did not affect the biosensor	CCCCOC(=O)CCC [Butyl butyrate (BB), butyl butyrate]	–	–	–
–	10 mM	–	did not affect the biosensor	CCCCCOC(=O)CCCC [Pentyl valerate (PV), pentyl valerate]	–	–	–

SMILES	Source-drain current after introduction of odorant ([2]; 100 fM, 1 pM, 10 pM and 100 pM (FIG. 10))	Detection Limit [2]	Effect on biosensor conductance ([2]; odorant at 1 pM (FIG. 11))	Effect on biosensor conductance ([2]; odorant at 100 μM (FIG. 11))	Detection Limit [1]	Activation of hOR2AG1 [3]	Detection Limit [4]
CCCOC(=O)CCC [Propyl butyrate (PB), propyl butyrate]	–	10 mM	–	did not affect the biosensor	–	–	–
